{"source": "patent US20180355033A1", "about": "“ANTIBODIES, COMPOUNDS AND SCREENS FOR IDENTIFYING AND TREATING CACHEXIA OR PRE-CACHEXIA” (Dana-Farber Cancer Institute, Inc., priority 2015, published 2018)", "molecules": {"B1": {"name": "S100B: recombinant S100 family RAGE ligand (protein, UniProt P04271 2-92, looked up)", "Protein S100-B": "SELEKAMVALIDVFHQYSGREGDKHKLKKSELKELINNELSHFLEEIKEQEVVDKVMETLDNDGDGECDFQEFMAFVAMVTTACHEFFEHE"}, "B2": {"name": "S100 A7: recombinant RAGE ligand of the S100 family (protein, UniProt P31151 2-101, looked up)", "Protein S100-A7": "SNTQAERSIIGMIDMFHKYTRRDDKIEKPSLLTMMKENFPNFLSACDKKGTNYLADVFEKKDKNEDKKIDFSEFLSLLGDIATDYHKQSHGAAPCSGGSQ"}, "B3": {"name": "A9: recombinant RAGE ligand of the S100 family (protein, UniProt P06702 1-114, looked up)", "Protein S100-A9": "MTCKMSQLERNIETIINTFHQYSVKLGHPDTLNQGEFKELVRKDLQNFLKKENKNEKVIEHIMEDLDTNADKQLSFEEFIMLMARLTWASHEKMHEGDEGPGHHHKPGLGEGTP"}, "B4": {"name": "HMGB1: high mobility group box 1, RAGE ligand (protein, UniProt P09429 1-215, looked up)", "High mobility group protein B1": "MGKGDPKKPRGKMSSYAFFVQTCREEHKKKHPDASVNFSEFSKKCSERWKTMSAKEKGKFEDMAKADKARYEREMKTYIPPKGETKKKFKDPNAPKRPPSAFFLFCSEYRPKIKGEHPGLSIGDVAKKLGEMWNNTAADDKQPYEKKAAKLKEKYEKDIAAYRAKGKPDAAKKGVVKAEKSKKKKEEEEDEEDEEDEEEEEDEEDEDEEEDDDDE"}, "B5": {"name": "A8: recombinant RAGE ligand of the S100 family (protein, UniProt P05109 1-93, looked up)", "Protein S100-A8": "MLTELEKALNSIIDVYHKYSLIKGNFHAVYRDDLKKLLETECPQYIRKKGADVWFKELDINTDGAVNFQEFLILVIKMGVAAHKKSHEESHKE"}}, "key": {"rat model of ICH": {"system": "rat model of ICH", "conditions": "cited from earlier work"}, "RAGE-expressing cells": {"system": "RAGE-expressing cells", "conditions": "RAGE-expressing cells in vitro and mouse brain in vivo; cited from earlier work"}, "V domain of RAGE": {"molecular_target": "V domain of RAGE (Homo sapiens, UniProt Q15109)", "sequence (Q15109 23-116 limits assumed)": "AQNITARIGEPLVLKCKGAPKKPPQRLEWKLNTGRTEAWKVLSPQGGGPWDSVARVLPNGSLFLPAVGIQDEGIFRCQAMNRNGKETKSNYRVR", "conditions": "cited from earlier work"}, "RAGE [1]": {"molecular_target": "T1, RAGE (Homo sapiens, UniProt Q15109)", "T1 sequence (Q15109 23-404)": "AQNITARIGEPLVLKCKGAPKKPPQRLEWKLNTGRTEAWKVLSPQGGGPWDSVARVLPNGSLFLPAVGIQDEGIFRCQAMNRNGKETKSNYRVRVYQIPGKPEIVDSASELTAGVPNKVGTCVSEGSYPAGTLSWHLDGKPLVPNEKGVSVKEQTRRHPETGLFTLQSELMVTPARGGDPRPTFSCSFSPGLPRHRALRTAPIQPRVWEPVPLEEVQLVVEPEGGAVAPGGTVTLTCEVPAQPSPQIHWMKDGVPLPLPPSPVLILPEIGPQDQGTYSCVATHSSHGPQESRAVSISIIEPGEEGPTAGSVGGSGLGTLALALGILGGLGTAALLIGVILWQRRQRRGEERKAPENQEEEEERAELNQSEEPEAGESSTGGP", "conditions": "cited from earlier work"}, "A-beta brain entry": {"system": "A-beta brain entry", "conditions": "in vivo; cited from earlier work"}, "HSkM": {"system": "HSkM", "test": "Functional testing in Cachexia Assay (HSkM functional assay)", "assay_type": "cell-based, human", "conditions": "FIG. 25", "description": "This implies that the modeled Ab epitope is likely a functional focused target for Ab therapy and that this is the basis for further small molecule therapeutic development for cancer cachexia and other RAGE mediated diseases."}, "RAGE [2]": {"molecular_target": "T1, RAGE", "test": "Direct immunoprecipitation with RAGE", "assay_type": "binding", "conditions": "direct immunoprecipitation experiments"}, "[3]": {"system": "Primary human myoblast differentiated into terminal myotubes", "test": "Cachexia induction by recombinant S100/HMGB1 ligands, myosin HC in-cell Western", "assay_type": "cell-based", "conditions": "recombinant ligand applied each day for 3 days", "protocol": "FIGS. 1-3 illustrate the effect of various proteins of the S100 family, as well as HMGB1, as cachexia inducers when compared with cachexia-inducing media. Primary human myoblast were plated and differentiated into terminal myotubes as previously described. Recombinant ligands were prepared at the same dose curve in Hanks Balance Salt Solution (buffer) and applied 1:2 v:v to fresh maintenance media each day for 3 days. Cells were assessed for myosin HC content by in-cell Western staining as previously described."}}, "note": "Entries after “also recorded” stand apart in the source; their conditions may differ.", "data": [{"molecule": "O=C(c1ccc(Cl)cc1)N(Cc1ccccc1)C1CCCCC1", "note": "[FPS-ZM1]", "values": [{"measurement": "BBB damage, brain edema, motor dysfunction, nerve fiber injury", "setting": "rat model of ICH; rat ICH model, FPS-ZM1 administration", "result": "significant improvements of BBB damage, brain edema, motor dysfunction, and nerve fiber injury"}, {"measurement": "FeCl2-induced RAGE and nuclear factor κB p65 upregulation", "setting": "rat model of ICH; rat, in vivo", "result": "reversed FeCl2-induced RAGE and nuclear factor κB p65 upregulation"}, {"measurement": "inhibition of Aβ40- and Aβ42-induced cellular stress", "setting": "RAGE-expressing cells", "result": "inhibited A1340- and A1342-induced cellular stress"}, {"measurement": "blocking of Aβ binding to the V domain of RAGE", "setting": "V domain of RAGE", "result": "blocked A13 binding to the V domain of RAGE"}]}, {"molecule": "CCN(CC)CCOc1cccc(Nc2nc(C)cc(-c3ccc(OCCC4CCCCC4)cc3)n2)c1", "note": "[Compound 53, 4-(4-(2-cyclohexylethoxy)phenyl)-N-(3-(2-(diethylamino)ethoxy)-phenyl)-6-methylpyrimidin-2-amine]", "values": [{"measurement": "affinity to ligand", "setting": "RAGE [1]", "result": "highest affinity to ligand"}]}, {"molecule": "CCN(CC)CCOc1ccccc1Nc1nc(-c2ccc(Cl)cc2)cc(-c2ccc(Cl)cc2)n1", "note": "[Compound 60, 4,6-bis(4-chlorophenyl)-N-(2-(2-(diethylamino)ethoxy)phenyl)-pyrimidin-2-amine]", "values": [{"measurement": "affinity to ligand", "setting": "RAGE [1]", "result": "highest affinity to ligand"}, {"measurement": "in vitro activity", "setting": "RAGE [1]", "result": "best in vitro activity"}]}, {"molecule": "CCN(CC)CCOc1cccc(Nc2nc(-c3ccc(Cl)cc3)cc(-c3ccc(Cl)cc3)n2)c1", "note": "[Compound 59, 4,6-bis(4-chlorophenyl)-N-(3-(2-(diethylamino)ethoxy)phenyl)-pyrimidin-2-amine]", "values": [{"measurement": "A-beta brain entry inhibition", "setting": "A-beta brain entry", "result": "most potent A-beta brain entry inhibition"}, {"measurement": "affinity to ligand", "setting": "RAGE [1]", "result": "highest affinity to ligand"}, {"measurement": "inhibition (not further specified)", "setting": "RAGE [1]", "result": "most significant inhibition"}]}, {"molecule": "CCCCCC(=Cc1ccccc1)CN(CCc1c[nH]c2ccccc12)C(=O)c1ccc(Cl)c([N+](=O)[O-])c1", "note": "[FPS3]", "values": [{"measurement": "inhibition of cachexia phenotype", "setting": "HSkM", "result": "inhibits cachexia phenotype"}]}, {"molecule": "S100A8/A9: recombinant S100A8/A9 (Calprotectin)", "values": [{"measurement": "direct binding to RAGE", "setting": "RAGE [2]", "result": "directly bind to RAGE"}, {"measurement": "induction of the cachectic phenotype (myosin HC content)", "setting": "[3]", "result": "capable of inducing the cachexia phenotype"}]}, {"molecule": "B1", "values": [{"measurement": "induction of the cachectic phenotype (myosin HC content)", "setting": "[3]", "result": "little or no activity in inducing cachexia; also recorded: do not induce precachexia and/or cachexia"}]}, {"molecule": "B2", "values": [{"measurement": "direct binding to RAGE", "setting": "RAGE [2]", "result": "directly bind to RAGE"}, {"measurement": "induction of the cachectic phenotype (myosin HC content)", "setting": "[3]", "result": "inducers of the cachectic phenotype"}, {"measurement": "induction of the cachectic phenotype (myosin HC content)", "setting": "[3]; listed as S100A7", "result": "capable of inducing the cachexia phenotype"}]}, {"molecule": "B3", "values": [{"measurement": "induction of the cachectic phenotype (myosin HC content)", "setting": "[3]", "result": "inducers of the cachectic phenotype"}]}, {"molecule": "B4", "values": [{"measurement": "induction of the cachectic phenotype (myosin HC content)", "setting": "[3]", "result": "do not induce precachexia and/or cachexia; also recorded: not cachexogenic in muscle; also recorded: cannot; also recorded: does not induce the cachectic phenotype"}]}, {"molecule": "B5", "values": [{"measurement": "induction of the cachectic phenotype (myosin HC content)", "setting": "[3]", "result": "inducers of the cachectic phenotype"}]}]}
